For two compounds, CC50 and fraction unbound results are on record in US12503448B2, “Antibacterial and antiparasitic quinoxaline-2,3-diamine derivatives” (University College Cardiff Consultants Limited, priority 2019, dated 2025).

A short description of one series: MTT assay on HepG2 cells. The format is cell-based. The settings on record: human. The protocol: MTT Assay on HepG2 Cells Human Hepatocyte Carcinoma (HepG2) cells (85011430, Sigma Aldrich) were used to assess the overt toxicity of these anti-infective compounds. […] A negative control (1% v/v Triton X-100; X100, Sigma-Aldrich) was also included in each screen. After addition of compounds, each plate was then incubated for a further 20 hrs before application of MTT reagent (prepared as described in Nur-[…], Bari A, Ghabbour […], Hoffmann […] Nat Prod. 2017 Jun. 23; 80(6):1900-1908 for the assessment of compound cytotoxicity using the MTT assay. […] The plate was then further incubated for 4 hrs. After incubation, each plate was blotted dry under the laminar flow to remove the MTT treated culture media. A 100 μl DMSO: isopropanol (1:1) solution was then added to each well and the plate was then subsequently incubated for 10 minutes at 37° C. Following incubation, each plate was shaken again and then absorbance measured at 570 nm. The absorbance reading was corrected based on the average value of the wells used as blank (no cells). […] The data obtained in this manner is shown in Table 1 in the columns labelled “HepG2”. […] The selectivity indexes for schistosomula and adult worms are shown in the final two columns in Table 1.

In the series “MTT assay on HepG2 cells”, `O=[N+]([O-])c1ccc2nc(Nc3ccc(C(F)(F)F)cc3)c(Nc3ccc(C(F)(F)F)cc3)nc2c1` [Compound 11, 6-nitro-N^2, N^3-bis(4-(trifluoromethyl)phenyl)quinoxaline-2,3-diamine] had a CC50 at 24 h of 15.6 µM.
In turn, `COc1ccc(Nc2nc3ccc([N+](=O)[O-])cc3nc2Nc2ccc(OC)c(C(F)(F)F)c2)cc1C(F)(F)F` [Compound 12, N^2, N^3-bis(4-methoxy-3-(tritluoromethyl)phenyl)-6-nitroquinoxaline-2,3-diamine] returned a fraction unbound in the series “Plasma protein binding” of 0.0134.
